ChEMBL document CHEMBL1201862, “PubChem BioAssay data set” (2004)
Active and inactive are the calls of the source.

Experiments:
SUMO-activating enzyme [1] = molecular target: T1, SUMO-activating enzyme (Homo sapiens, UniProt Q9UBT2); test: SUMOylation inhibitor hit validation, confirmation, SUMOylation inhibitor project, biochemical, AlphaScreen (AID 2018); type: functional
[2] = molecular target: T2, High affinity choline transporter 1 (Homo sapiens, UniProt Q9GZV3); test: CHT inhibitors, dose response, cell-based, 5-point CRC, membrane potential dye (AID 504840); type: functional
T2 sequence (Q9GZV3 whole entry): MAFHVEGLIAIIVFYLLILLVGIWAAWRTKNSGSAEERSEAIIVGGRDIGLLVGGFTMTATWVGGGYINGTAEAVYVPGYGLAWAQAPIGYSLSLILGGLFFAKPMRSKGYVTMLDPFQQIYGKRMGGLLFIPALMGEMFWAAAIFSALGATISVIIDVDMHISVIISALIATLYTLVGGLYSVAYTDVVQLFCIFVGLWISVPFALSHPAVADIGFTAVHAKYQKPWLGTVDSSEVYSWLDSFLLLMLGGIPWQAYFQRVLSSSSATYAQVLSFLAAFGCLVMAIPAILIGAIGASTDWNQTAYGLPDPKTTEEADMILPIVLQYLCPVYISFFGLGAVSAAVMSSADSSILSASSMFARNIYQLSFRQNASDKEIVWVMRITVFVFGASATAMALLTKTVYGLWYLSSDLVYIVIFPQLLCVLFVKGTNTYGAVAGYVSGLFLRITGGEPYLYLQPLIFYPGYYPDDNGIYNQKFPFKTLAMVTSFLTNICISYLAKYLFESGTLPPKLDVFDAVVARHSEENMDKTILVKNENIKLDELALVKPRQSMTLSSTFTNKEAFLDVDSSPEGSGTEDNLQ

[3] = cytotoxicity in HEK-293T cells, dose response, cytotoxicity control for BCR NF-kB inhibitor project, luminescence, B-cell screen hits (AID 489021); type: functional, cell-based;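 note: HEK-293T cells carrying an NF-kB luciferase reporter; cells exposed to compound for about 14 hours before viability readout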
[4] = LGR2 antagonists, dose response, cell-based, HEK293, CRE-luciferase reporter, cherry pick, set 2 (AID 743343); type: functional;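 note: transfected cells were stimulated with diluted bursicon conditioned medium after compound addition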
Protein RecA = molecular target: T3, Protein RecA (Mycobacterium tuberculosis, UniProt P9WHJ3); test: Fluorescence Cell-Free Homogeneous Dose Retest to Identify Inhibitors of RecA-Intein Splicing Activity. [Related pubchem assays (depositor defined):AID2097, AID2223, AID489010, AID492950]; type: functional
T3 sequence (P9WHJ3 whole entry): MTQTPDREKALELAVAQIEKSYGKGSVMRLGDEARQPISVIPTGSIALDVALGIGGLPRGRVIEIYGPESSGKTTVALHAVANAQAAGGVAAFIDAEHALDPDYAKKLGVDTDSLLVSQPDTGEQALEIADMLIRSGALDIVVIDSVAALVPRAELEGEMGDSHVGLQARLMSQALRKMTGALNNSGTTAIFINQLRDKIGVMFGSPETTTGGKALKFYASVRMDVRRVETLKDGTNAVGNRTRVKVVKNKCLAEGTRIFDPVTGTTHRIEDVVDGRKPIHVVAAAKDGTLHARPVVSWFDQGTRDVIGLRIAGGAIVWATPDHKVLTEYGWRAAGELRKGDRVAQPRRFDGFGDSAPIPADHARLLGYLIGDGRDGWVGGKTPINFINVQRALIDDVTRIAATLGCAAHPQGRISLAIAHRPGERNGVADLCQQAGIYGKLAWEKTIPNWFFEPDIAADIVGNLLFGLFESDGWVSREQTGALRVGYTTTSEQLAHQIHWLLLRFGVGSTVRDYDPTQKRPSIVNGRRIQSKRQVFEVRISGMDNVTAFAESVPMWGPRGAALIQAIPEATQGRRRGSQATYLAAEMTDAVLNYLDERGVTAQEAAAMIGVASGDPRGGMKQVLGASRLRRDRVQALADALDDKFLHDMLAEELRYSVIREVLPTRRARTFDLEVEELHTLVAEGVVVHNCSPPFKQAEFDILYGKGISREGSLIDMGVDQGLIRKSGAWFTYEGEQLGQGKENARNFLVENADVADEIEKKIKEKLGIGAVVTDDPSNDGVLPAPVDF

[5] = MC4R antagonists, dose response, counter-screen for LGR2 antagonist project, cell-based, plate reader, cherry pick (AID 743444); type: functional;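 note: transfected HEK 293 cells stimulated with alpha-MSH peptide; potency of inhibitors of the alpha-MSH evoked signal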
[6] = molecular target: T4, Replicative DNA helicase DnaB (Mycobacterium tuberculosis, UniProt P9WMR3); test: DnaB intein splicing inhibitors, dose response, biochemical, cell-free fluorescence (AID 449749); type: functional
T4 sequence (P9WMR3 whole entry): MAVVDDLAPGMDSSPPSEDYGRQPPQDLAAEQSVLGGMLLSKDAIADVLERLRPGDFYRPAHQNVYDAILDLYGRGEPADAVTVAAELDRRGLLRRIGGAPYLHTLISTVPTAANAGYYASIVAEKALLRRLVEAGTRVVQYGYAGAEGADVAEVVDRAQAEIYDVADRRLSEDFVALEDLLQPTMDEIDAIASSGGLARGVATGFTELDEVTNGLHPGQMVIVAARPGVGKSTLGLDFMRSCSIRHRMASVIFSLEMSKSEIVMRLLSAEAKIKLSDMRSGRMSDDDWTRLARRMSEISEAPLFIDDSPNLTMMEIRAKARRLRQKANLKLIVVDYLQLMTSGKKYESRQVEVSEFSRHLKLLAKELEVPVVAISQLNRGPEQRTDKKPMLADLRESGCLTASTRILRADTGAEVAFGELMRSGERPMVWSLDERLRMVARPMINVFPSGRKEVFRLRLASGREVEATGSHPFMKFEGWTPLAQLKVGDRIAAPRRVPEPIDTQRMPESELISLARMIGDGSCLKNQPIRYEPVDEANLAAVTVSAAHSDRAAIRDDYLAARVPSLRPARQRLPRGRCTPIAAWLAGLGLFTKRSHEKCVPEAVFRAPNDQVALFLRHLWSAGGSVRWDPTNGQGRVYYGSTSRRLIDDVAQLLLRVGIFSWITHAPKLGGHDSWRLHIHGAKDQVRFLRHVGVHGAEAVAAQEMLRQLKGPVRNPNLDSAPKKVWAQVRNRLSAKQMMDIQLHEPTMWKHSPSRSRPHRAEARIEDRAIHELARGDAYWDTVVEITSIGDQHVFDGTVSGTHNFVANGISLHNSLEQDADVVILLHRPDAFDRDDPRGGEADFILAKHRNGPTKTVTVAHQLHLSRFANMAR

[7] = molecular target: Heat shock protein HSP 90-alpha (Homo sapiens, UniProt P07900); type: functional, organism-based
[8] = A549 cell cytotoxicity, dose response, cytotoxicity control, plate reader, cherry-pick, antagonist series (AID 743412); type: functional, cell-based
[9] = HepG2 cell cytotoxicity, dose response, cytotoxicity control, plate reader, cherry-pick, antagonist series (AID 743416); type: functional, cell-based
[10] = HEK293 cell cytotoxicity, dose response, cytotoxicity control, plate reader, cherry-picked samples (AID 743446); type: functional, cell-based
[11] = insulin promoter down-regulators in MIN6 cells, imaging, high-content screening, mouse beta cells (AID 1628); type: functional
INS1 = test: beta cell apoptosis inhibitors, cytokine rescue, dose response, luminescence, retest (AID 449756); type: functional, cell-based; settings: Rattus norvegicus;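 note: cell death triggered by IL-1 beta plus TNF-alpha plus IFN-gamma mixture; protective hits raise ATP signal compared with cytokine alone wells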
[12] = cytotoxicity in MIN6 insulinoma cells, dose response, cytotoxicity control, cell-based, mouse insulinoma (AID 2122); type: functional;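 note: confirmatory high-throughput counterscreen run to flag cytotoxic compounds; mouse MIN-6 beta cells carrying an insulin promoter eGFP reporter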
SUMO-activating enzyme [13] = molecular target: T1, SUMO-activating enzyme; test: inhibitors of in vitro SUMOylation cascade, primary screen, biochemical, HTRF, uHTS (AID 2006); type: protein-complex assay

T1 sequence (Q9UBE0 whole entry): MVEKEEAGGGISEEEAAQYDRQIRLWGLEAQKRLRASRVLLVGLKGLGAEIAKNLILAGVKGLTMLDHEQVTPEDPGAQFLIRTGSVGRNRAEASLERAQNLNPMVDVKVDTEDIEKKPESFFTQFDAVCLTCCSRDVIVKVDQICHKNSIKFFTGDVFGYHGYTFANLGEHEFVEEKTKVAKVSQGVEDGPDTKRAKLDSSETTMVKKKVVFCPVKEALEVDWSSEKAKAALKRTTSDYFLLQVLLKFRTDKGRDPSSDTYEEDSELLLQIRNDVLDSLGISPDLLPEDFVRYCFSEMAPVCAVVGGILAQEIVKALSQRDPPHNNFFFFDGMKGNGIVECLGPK
T1 sequence (Q9UBT2 whole entry): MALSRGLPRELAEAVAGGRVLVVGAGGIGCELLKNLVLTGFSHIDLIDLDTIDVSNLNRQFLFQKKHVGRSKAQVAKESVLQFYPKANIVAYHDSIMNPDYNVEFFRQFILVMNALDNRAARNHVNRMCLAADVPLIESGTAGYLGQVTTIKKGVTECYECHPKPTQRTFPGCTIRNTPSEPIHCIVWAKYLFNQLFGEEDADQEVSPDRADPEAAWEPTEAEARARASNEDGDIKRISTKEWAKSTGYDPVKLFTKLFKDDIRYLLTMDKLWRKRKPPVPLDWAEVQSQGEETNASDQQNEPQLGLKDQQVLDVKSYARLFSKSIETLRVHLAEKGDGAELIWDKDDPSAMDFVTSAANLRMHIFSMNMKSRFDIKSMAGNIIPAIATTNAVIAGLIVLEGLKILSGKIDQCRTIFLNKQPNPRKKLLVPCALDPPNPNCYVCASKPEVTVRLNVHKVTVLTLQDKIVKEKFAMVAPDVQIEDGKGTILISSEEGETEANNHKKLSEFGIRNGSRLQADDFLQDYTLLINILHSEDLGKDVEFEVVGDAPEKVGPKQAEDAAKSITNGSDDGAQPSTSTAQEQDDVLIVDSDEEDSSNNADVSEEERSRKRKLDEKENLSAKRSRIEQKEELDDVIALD

O=C(Nc1nc(-c2ccccc2)cs1)c1ccccc1NS(=O)(=O)c1ccc(F)cc1
active: IC50 (SUMO-activating enzyme [1]) 7.97 µM | IC50 [2] 13.8 µM | IC50 [3] 14.8 µM | AC50 [4] 28.6 µM | EC50 (Protein RecA) 8.85 µM | AC50 [5] 6.01 µM | AC50 [6] 2.17 µM | AC50 [7] 2.91 µM | AC50 [8] 14.6 µM | AC50 [9] 11.2 µM | AC50 [10] 3.39 µM | IC50 [11] 3.02 µM | AC50 (INS1) 3.41 µM | IC50 [12] 2.18 µM | IC50 (SUMO-activating enzyme [13]) 18.4 µM
